Results as given in the supplement of paper PMC10307832.

Tests used:
Assay in all cases: relative viability (nuclei count vs DMSO), 5 days (fraction); higher = more cells survive
AZD8055 = compound: COc1ccc(-c2ccc3c(N4CCOC[C@@H]4C)nc(N4CCOC[C@@H]4C)nc3n2)cc1CO [AZD8055]
How it was run: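 Lung cancer cell lines received five library-drug doses (not always all listed) spaced by √10, pinned on vehicle-anchored 1536-well plates after an overnight stay at 37 °C. Five days later, with no medium change, nuclei were Hoechst-stained, imaged at 4× and counted with MetaXpress. Viability is treated-well nuclei relative to vehicle-well nuclei, as a median across plates. Passing plates had control CV below 25% and at least one doubling.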

AZD8055 + Trametinib = compound: COc1ccc(-c2ccc3c(N4CCOC[C@@H]4C)nc(N4CCOC[C@@H]4C)nc3n2)cc1CO [AZD8055] + CC(=O)Nc1cccc(-n2c(=O)n(C3CC3)c(=O)c3c(Nc4ccc(I)cc4F)n(C)c(=O)c(C)c32)c1 [Trametinib] (partner 0.02 µM)
How it was run: (§1)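 Lung cancer cell lines were pin-tool dosed in 1536-well plates on the day after seeding, with either a lone drug or a fixed anchor-drug dose plus five library-drug doses (not always all listed) in √10 steps. Nuclei were counted on 4× images after 5 days. Relative viability is the ratio of treated-well to vehicle-well nuclei counts, with each value a median of duplicate plates.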

AZD8055 + Palbociclib = compound: COc1ccc(-c2ccc3c(N4CCOC[C@@H]4C)nc(N4CCOC[C@@H]4C)nc3n2)cc1CO [AZD8055] + CC(=O)c1c(C)c2cnc(Nc3ccc(N4CCNCC4)cn3)nc2n(C2CCCC2)c1=O [Palbociclib] (partner 0.5 µM)
How it was run: as §1

AZD8055 + Luminespib = compound: COc1ccc(-c2ccc3c(N4CCOC[C@@H]4C)nc(N4CCOC[C@@H]4C)nc3n2)cc1CO [AZD8055] + CCNC(=O)c1noc(-c2cc(C(C)C)c(O)cc2O)c1-c1ccc(CN2CCOCC2)cc1 [Luminespib] (partner 0.01 µM)
How it was run: as §1

AZD8055 + OSI-027 = compound: COc1ccc(-c2ccc3c(N4CCOC[C@@H]4C)nc(N4CCOC[C@@H]4C)nc3n2)cc1CO [AZD8055] + COc1cccc2cc(-c3nc([C@H]4CC[C@H](C(=O)O)CC4)n4ncnc(N)c34)[nH]c12 [OSI-027] (partner 0.5 µM)
How it was run: as §1

AZD8055 + Tozasertib = compound: COc1ccc(-c2ccc3c(N4CCOC[C@@H]4C)nc(N4CCOC[C@@H]4C)nc3n2)cc1CO [AZD8055] + Cc1cc(Nc2cc(N3CCN(C)CC3)nc(Sc3ccc(NC(=O)C4CC4)cc3)n2)n[nH]1 [Tozasertib] (partner 0.1 µM)
How it was run: as §1

AZD8055 + Dasatinib = compound: COc1ccc(-c2ccc3c(N4CCOC[C@@H]4C)nc(N4CCOC[C@@H]4C)nc3n2)cc1CO [AZD8055] + Cc1nc(Nc2ncc(C(=O)Nc3c(C)cccc3Cl)s2)cc(N2CCN(CCO)CC2)n1 [Dasatinib] (partner 0.075 µM)
How it was run: as §1

AZD8055 + Phenformin = compound: COc1ccc(-c2ccc3c(N4CCOC[C@@H]4C)nc(N4CCOC[C@@H]4C)nc3n2)cc1CO [AZD8055] + N=C(N)NC(=N)NCCc1ccccc1 [Phenformin] (partner 250 µM)
How it was run: as §1

AZD8055 + AZD7762 = compound: COc1ccc(-c2ccc3c(N4CCOC[C@@H]4C)nc(N4CCOC[C@@H]4C)nc3n2)cc1CO [AZD8055] + NC(=O)Nc1cc(-c2cccc(F)c2)sc1C(=O)N[C@H]1CCCNC1 [AZD7762] (partner 0.2 µM)
How it was run: as §1

AZD8055 + Pemetrexed = compound: COc1ccc(-c2ccc3c(N4CCOC[C@@H]4C)nc(N4CCOC[C@@H]4C)nc3n2)cc1CO [AZD8055] + Nc1nc2[nH]cc(CCc3ccc(C(=O)N[C@@H](CCC(=O)O)C(=O)O)cc3)c2c(=O)[nH]1 [Pemetrexed] (partner 0.2 µM)
How it was run: as §1

AZD8055 + Decitabine = compound: COc1ccc(-c2ccc3c(N4CCOC[C@@H]4C)nc(N4CCOC[C@@H]4C)nc3n2)cc1CO [AZD8055] + Nc1ncn([C@H]2C[C@H](O)[C@@H](CO)O2)c(=O)n1 [Decitabine] (partner 2 µM)
How it was run: as §1

AZD8055 + Vorinostat = compound: COc1ccc(-c2ccc3c(N4CCOC[C@@H]4C)nc(N4CCOC[C@@H]4C)nc3n2)cc1CO [AZD8055] + O=C(CCCCCCC(=O)Nc1ccccc1)NO [Vorinostat] (partner 1 µM)
How it was run: as §1

AZD8055 + Olaparib = compound: COc1ccc(-c2ccc3c(N4CCOC[C@@H]4C)nc(N4CCOC[C@@H]4C)nc3n2)cc1CO [AZD8055] + O=C(c1cc(Cc2n[nH]c(=O)c3ccccc23)ccc1F)N1CCN(C(=O)C2CC2)CC1 [Olaparib] (partner 8 µM)
How it was run: as §1

Question: Which relative viability (AZD8055; 0.01 µM) does the source give for NCI-H522 here?
Answer: 0.965

Question: What about the relative viability (AZD8055; 0.03162 µM) of the same cell line?
Answer: 1

Question: And the relative viability (AZD8055; 0.1 µM)?
Answer: 0.723

Question: What about the relative viability (AZD8055; 0.3162 µM) of the same cell line?
Answer: 0.519

Question: What about the relative viability (AZD8055; 1 µM) of the same cell line?
Answer: 0.719

Question: What about the relative viability (AZD8055 + Trametinib; first compound 0.01 µM) of the same cell line?
Answer: 0.747

Question: And the relative viability (AZD8055 + Trametinib; first compound 0.03162 µM)?
Answer: 0.648

Question: What about the relative viability (AZD8055 + Trametinib; first compound 0.1 µM) of the same cell line?
Answer: 0.574

Question: What about the relative viability (AZD8055 + Trametinib; first compound 0.3162 µM) of the same cell line?
Answer: 0.494

Question: And the relative viability (AZD8055 + Trametinib; first compound 1 µM)?
Answer: 0.462

Question: And the relative viability (AZD8055 + Palbociclib; first compound 0.01 µM)?
Answer: 1.06

Question: What about the relative viability (AZD8055 + Palbociclib; first compound 0.03162 µM) of the same cell line?
Answer: 0.923

Question: And the relative viability (AZD8055 + Palbociclib; first compound 0.1 µM)?
Answer: 0.717

Question: What about the relative viability (AZD8055 + Palbociclib; first compound 0.3162 µM) of the same cell line?
Answer: 0.536

Question: And the relative viability (AZD8055 + Palbociclib; first compound 1 µM)?
Answer: 0.414

Question: And the relative viability (AZD8055 + Luminespib; first compound 0.01 µM)?
Answer: 1.19

Question: What about the relative viability (AZD8055 + Luminespib; first compound 0.03162 µM) of the same cell line?
Answer: 0.994

Question: And the relative viability (AZD8055 + Luminespib; first compound 0.1 µM)?
Answer: 0.744

Question: And the relative viability (AZD8055 + Luminespib; first compound 0.3162 µM)?
Answer: 0.581

Question: What about the relative viability (AZD8055 + Luminespib; first compound 1 µM) of the same cell line?
Answer: 0.553

Question: And the relative viability (AZD8055 + OSI-027; first compound 0.01 µM)?
Answer: 0.698

Question: What about the relative viability (AZD8055 + OSI-027; first compound 0.03162 µM) of the same cell line?
Answer: 0.757

Question: What about the relative viability (AZD8055 + OSI-027; first compound 0.1 µM) of the same cell line?
Answer: 0.803

Question: What about the relative viability (AZD8055 + OSI-027; first compound 0.3162 µM) of the same cell line?
Answer: 0.67

Question: What about the relative viability (AZD8055 + OSI-027; first compound 1 µM) of the same cell line?
Answer: 0.632

Question: And the relative viability (AZD8055 + Tozasertib; first compound 0.01 µM)?
Answer: 0.571

Question: And the relative viability (AZD8055 + Tozasertib; first compound 0.03162 µM)?
Answer: 0.544

Question: What about the relative viability (AZD8055 + Tozasertib; first compound 0.1 µM) of the same cell line?
Answer: 0.421

Question: What about the relative viability (AZD8055 + Tozasertib; first compound 0.3162 µM) of the same cell line?
Answer: 0.421

Question: And the relative viability (AZD8055 + Tozasertib; first compound 1 µM)?
Answer: 0.425

Question: And the relative viability (AZD8055 + Dasatinib; first compound 0.01 µM)?
Answer: 0.864

Question: And the relative viability (AZD8055 + Dasatinib; first compound 0.03162 µM)?
Answer: 0.831

Question: What about the relative viability (AZD8055 + Dasatinib; first compound 0.1 µM) of the same cell line?
Answer: 0.907

Question: And the relative viability (AZD8055 + Dasatinib; first compound 0.3162 µM)?
Answer: 0.625

Question: What about the relative viability (AZD8055 + Dasatinib; first compound 1 µM) of the same cell line?
Answer: 0.535

Question: What about the relative viability (AZD8055 + Phenformin; first compound 0.01 µM) of the same cell line?
Answer: 0.69

Question: What about the relative viability (AZD8055 + Phenformin; first compound 0.03162 µM) of the same cell line?
Answer: 0.624

Question: And the relative viability (AZD8055 + Phenformin; first compound 0.1 µM)?
Answer: 0.669

Question: And the relative viability (AZD8055 + Phenformin; first compound 0.3162 µM)?
Answer: 0.48

Question: What about the relative viability (AZD8055 + Phenformin; first compound 1 µM) of the same cell line?
Answer: 0.56

Question: And the relative viability (AZD8055 + AZD7762; first compound 0.01 µM)?
Answer: 0.847

Question: What about the relative viability (AZD8055 + AZD7762; first compound 0.03162 µM) of the same cell line?
Answer: 0.799

Question: And the relative viability (AZD8055 + AZD7762; first compound 0.1 µM)?
Answer: 0.647

Question: And the relative viability (AZD8055 + AZD7762; first compound 0.3162 µM)?
Answer: 0.532

Question: What about the relative viability (AZD8055 + AZD7762; first compound 1 µM) of the same cell line?
Answer: 0.569

Question: And the relative viability (AZD8055 + Pemetrexed; first compound 0.01 µM)?
Answer: 0.992

Question: What about the relative viability (AZD8055 + Pemetrexed; first compound 0.03162 µM) of the same cell line?
Answer: 0.943

Question: And the relative viability (AZD8055 + Pemetrexed; first compound 0.1 µM)?
Answer: 0.962

Question: What about the relative viability (AZD8055 + Pemetrexed; first compound 0.3162 µM) of the same cell line?
Answer: 0.518

Question: What about the relative viability (AZD8055 + Pemetrexed; first compound 1 µM) of the same cell line?
Answer: 0.467

Question: What about the relative viability (AZD8055 + Decitabine; first compound 0.01 µM) of the same cell line?
Answer: 0.737

Question: And the relative viability (AZD8055 + Decitabine; first compound 0.03162 µM)?
Answer: 0.591

Question: And the relative viability (AZD8055 + Decitabine; first compound 0.1 µM)?
Answer: 0.619

Question: What about the relative viability (AZD8055 + Decitabine; first compound 0.3162 µM) of the same cell line?
Answer: 0.527

Question: And the relative viability (AZD8055 + Decitabine; first compound 1 µM)?
Answer: 0.462

Question: And the relative viability (AZD8055 + Vorinostat; first compound 0.01 µM)?
Answer: 0.898

Question: And the relative viability (AZD8055 + Vorinostat; first compound 0.03162 µM)?
Answer: 0.731

Question: What about the relative viability (AZD8055 + Vorinostat; first compound 0.1 µM) of the same cell line?
Answer: 0.876

Question: And the relative viability (AZD8055 + Vorinostat; first compound 0.3162 µM)?
Answer: 0.666

Question: What about the relative viability (AZD8055 + Vorinostat; first compound 1 µM) of the same cell line?
Answer: 0.499

Question: What about the relative viability (AZD8055 + Olaparib; first compound 0.01 µM) of the same cell line?
Answer: 0.603

Question: And the relative viability (AZD8055 + Olaparib; first compound 0.03162 µM)?
Answer: 0.686

Question: And the relative viability (AZD8055 + Olaparib; first compound 0.1 µM)?
Answer: 0.543

Question: What about the relative viability (AZD8055 + Olaparib; first compound 0.3162 µM) of the same cell line?
Answer: 0.387

Question: And the relative viability (AZD8055 + Olaparib; first compound 1 µM)?
Answer: 0.385
